US20170226139A1, “CRYSTALLINE SALTS OF (Z)-O-OCTADEC-9-EN-1-YL O,O-DIHYDROGEN PHOSPHOROTHIOATE” (priority 2013, published 2017)
pEC50: −log10 of the molar value. Where two headings read alike, the source gives them in different places.

Columns and labels:
[1] = biological target: T1, Human LPA1 (Homo sapiens, UniProt Q92633); assay: Calcium-mobilization assay (FURA-2), human LPA1 transfected cells; type: cell-based; settings: for EC50: EC50 [nM]; for EC50 / Emax (% of LPA) / pEC50: mean; for pEC50: read-out: EC50
T1 construct: expressed in transfected cells; host or cells: mouse embryonic fibroblasts (MEF)
Protocol: (§1) We investigated structure-activity relationships across species, LPAR subtypes and between Rx100 and two known process impurities encountered in manufacture: Rx103 (‘E’ isomer) and Rx200 (oleyl phosphate and impurity, which can be an Rx100 degradant along with oleyl alcohol). Rx100, Rx103, Rx200 and native LPA were investigated at different human LPAR subtypes. In addition, the activity of these compounds was evaluated at LPA2 receptors from the rhesus, rat and mouse species. Human LPA1/2/3 subtypes were transfected into mouse embryonic fibroblasts (MEF) or rat hepatoma cells (RH7777)—both of which are normally non-responsive or null to LPA. Human LPA4 was transfected into Chinese hamster ovary (CHO) cells and LPA5 into the B103 neuroblastoma cell line. […] The B103 rat neuroblastoma cell line is endogenously nonresponsive to LPA but expresses heterologous LPA5 receptors well. […] LPAR activation elicits a G-protein-mediated transient rise in intracellular calcium level that is proportional to the concentration of LPA applied. The intracellular calcium level was quantified by the calcium-selective fluorescent indicator FURA-2 (e.g., increased intracellular calcium surge=increased fluorescence).

[2] = biological target: T2, Human LPA3 (Homo sapiens, UniProt Q9UBY5); assay: Calcium-mobilization assay (FURA-2), human LPA3 transfected cells; type: cell-based; settings: for EC50: EC50 [nM]; for EC50 / Emax (% of LPA) / pEC50: mean; for pEC50: read-out: EC50
T2 construct: expressed in transfected cells; host or cells: mouse embryonic fibroblasts (MEF) or rat hepatoma RH7777
T2 sequence (Q9UBY5 1-353): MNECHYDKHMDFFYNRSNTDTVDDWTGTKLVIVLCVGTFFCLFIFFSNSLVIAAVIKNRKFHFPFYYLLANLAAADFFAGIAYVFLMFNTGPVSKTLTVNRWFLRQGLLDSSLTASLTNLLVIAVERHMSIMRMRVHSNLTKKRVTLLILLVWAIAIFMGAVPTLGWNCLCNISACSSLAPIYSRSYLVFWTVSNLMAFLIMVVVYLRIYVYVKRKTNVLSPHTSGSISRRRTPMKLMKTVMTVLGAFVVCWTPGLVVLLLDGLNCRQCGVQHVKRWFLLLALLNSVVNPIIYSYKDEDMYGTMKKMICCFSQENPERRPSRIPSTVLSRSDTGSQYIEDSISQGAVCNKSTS
Protocol: as §1

[3] = biological target: T3, Human LPA4 (Homo sapiens, UniProt Q99677); assay: Calcium-mobilization assay (FURA-2), human LPA4 in CHO cells; type: cell-based
T3 construct: expressed in transfected cells; host or cells: CHO
Protocol: as §1

[4] = biological target: T4, LPA5 (Homo sapiens, UniProt Q9H1C0); assay: Calcium-mobilization assay (FURA-2), LPA5 in B103 neuroblastoma cells; type: cell-based
T4 construct: expressed in transfected cells; host or cells: B103 rat neuroblastoma
Protocol: as §1

[5] = biological target: LPA2 receptors from the rhesus (Macaca mulatta, UniProt I2CXV3); assay: Calcium-mobilization assay (FURA-2), rhesus LPA2; type: cell-based
Protocol: as §1

[6] = biological target: LPA2 receptors from the rat (Rattus norvegicus, UniProt A0ABK0LT65); assay: Calcium-mobilization assay (FURA-2), rat LPA2; type: cell-based
Protocol: as §1

[7] = biological target: T5, LPA2 receptors from the mouse (Mus musculus, UniProt Q9JL06); assay: Calcium-mobilization assay (FURA-2), mouse LPA2; type: cell-based
T5 construct: expressed in transfected cells
Protocol: as §1

[8] = system: lysophosphatidic acid receptor (LPAR); assay: Calcium-mobilization assay, overall statements for all species and LPAR subtypes tested; type: cell-based
Source text: The compound was medicinally designed as an LPA analog with the goal of decreasing the otherwise rapid metabolism of LPA itself. […] These receptors are ubiquitous by tissue and in those eukaryotes investigated. […] Thus, the mechanism of drug action for GI-ARS protection is activation of the transmembrane G protein-coupled lysophosphatidic acid receptor (LPAR) and, more specifically, the LPAR2 GPCR subtype. The primary pharmacodynamics is that LPAR2 activation leads to a cascade of intracellular events that switch cells from an apoptotic to a repair/regenerative pathway.
as §1
Oleyl alcohol is, of course, a common component of many non-toxic ingested or dermally applied substances.

[9] = system: Control CHO; assay: Calcium-mobilization assay, untransfected Control CHO cells; type: cell-based, Chinese hamster
Protocol: as §1

[10] = biological target: Human LPA2 (Homo sapiens, UniProt Q9HBW0); assay: Calcium-mobilization assay (FURA-2), human LPA2 transfected cells; type: cell-based; design: expressed in transfected cells; host or cells: mouse embryonic fibroblasts (MEF) or rat hepatoma RH7777
Protocol: as §1

[11] = RH7777, read-out: Emax (% of LPA)

T1 sequence (Q92633 whole entry): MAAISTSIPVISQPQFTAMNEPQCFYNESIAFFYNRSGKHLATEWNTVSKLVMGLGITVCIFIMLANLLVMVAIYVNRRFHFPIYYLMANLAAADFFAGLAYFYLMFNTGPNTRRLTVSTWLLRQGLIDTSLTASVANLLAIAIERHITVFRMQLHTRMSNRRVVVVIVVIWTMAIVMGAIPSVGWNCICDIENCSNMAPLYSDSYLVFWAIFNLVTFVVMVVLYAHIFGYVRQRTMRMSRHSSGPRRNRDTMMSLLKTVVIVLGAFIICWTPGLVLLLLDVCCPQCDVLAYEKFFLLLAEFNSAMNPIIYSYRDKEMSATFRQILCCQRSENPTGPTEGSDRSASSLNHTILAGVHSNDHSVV
Sequence of Human LPA2 (Q9HBW0 whole entry): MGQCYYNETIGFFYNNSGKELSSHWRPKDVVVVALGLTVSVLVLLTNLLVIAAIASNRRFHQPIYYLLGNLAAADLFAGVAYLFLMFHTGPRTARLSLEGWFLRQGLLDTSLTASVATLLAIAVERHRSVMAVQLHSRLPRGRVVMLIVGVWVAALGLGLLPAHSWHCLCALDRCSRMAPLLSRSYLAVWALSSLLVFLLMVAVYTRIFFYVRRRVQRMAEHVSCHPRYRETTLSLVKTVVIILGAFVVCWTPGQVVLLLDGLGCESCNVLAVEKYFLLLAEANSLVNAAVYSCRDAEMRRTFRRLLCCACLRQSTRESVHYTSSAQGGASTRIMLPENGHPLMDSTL
T4 sequence (Q9H1C0 whole entry): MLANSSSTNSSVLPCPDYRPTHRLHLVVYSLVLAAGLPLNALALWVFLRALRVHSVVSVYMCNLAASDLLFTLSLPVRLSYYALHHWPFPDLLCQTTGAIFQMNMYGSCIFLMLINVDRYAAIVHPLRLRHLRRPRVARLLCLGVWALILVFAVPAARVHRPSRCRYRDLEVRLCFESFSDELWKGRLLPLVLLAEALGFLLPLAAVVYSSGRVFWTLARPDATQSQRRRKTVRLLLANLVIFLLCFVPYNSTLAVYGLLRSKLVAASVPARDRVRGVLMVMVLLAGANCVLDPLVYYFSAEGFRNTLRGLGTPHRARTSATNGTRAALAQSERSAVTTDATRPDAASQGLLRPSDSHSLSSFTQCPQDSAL
Sequence of LPA2 receptors from the rhesus (I2CXV3 1-351): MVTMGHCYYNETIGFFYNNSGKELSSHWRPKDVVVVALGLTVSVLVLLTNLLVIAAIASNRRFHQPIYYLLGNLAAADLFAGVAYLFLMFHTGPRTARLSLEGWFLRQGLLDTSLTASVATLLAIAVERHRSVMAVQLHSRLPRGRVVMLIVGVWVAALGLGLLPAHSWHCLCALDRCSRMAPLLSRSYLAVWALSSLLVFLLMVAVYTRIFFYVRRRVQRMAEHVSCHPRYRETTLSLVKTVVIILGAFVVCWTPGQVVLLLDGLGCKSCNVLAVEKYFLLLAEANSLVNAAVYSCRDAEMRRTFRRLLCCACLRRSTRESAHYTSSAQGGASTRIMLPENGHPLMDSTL
T5 sequence (Q9JL06 whole entry): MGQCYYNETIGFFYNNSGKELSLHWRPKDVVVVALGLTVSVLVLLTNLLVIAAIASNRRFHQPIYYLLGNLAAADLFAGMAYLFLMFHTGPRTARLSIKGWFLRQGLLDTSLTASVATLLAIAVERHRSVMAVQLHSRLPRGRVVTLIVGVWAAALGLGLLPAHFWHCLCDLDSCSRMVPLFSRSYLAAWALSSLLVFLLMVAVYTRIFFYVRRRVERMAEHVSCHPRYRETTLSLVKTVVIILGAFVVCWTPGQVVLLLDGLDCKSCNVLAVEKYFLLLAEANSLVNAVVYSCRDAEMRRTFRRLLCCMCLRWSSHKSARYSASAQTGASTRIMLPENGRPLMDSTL
T3 sequence (Q99677 whole entry): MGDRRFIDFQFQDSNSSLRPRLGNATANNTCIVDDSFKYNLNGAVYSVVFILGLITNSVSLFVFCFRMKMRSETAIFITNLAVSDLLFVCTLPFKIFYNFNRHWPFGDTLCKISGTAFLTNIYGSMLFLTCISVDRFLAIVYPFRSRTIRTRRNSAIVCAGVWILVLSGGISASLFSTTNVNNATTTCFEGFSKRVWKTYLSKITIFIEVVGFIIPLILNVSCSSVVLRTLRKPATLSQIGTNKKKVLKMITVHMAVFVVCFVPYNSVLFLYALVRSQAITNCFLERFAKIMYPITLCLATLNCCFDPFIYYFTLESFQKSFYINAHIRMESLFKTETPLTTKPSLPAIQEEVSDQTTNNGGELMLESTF
Sequence of LPA2 receptors from the rat (A0ABK0LT65 1-348): as the sequence (Q9JL06 whole entry) above, with A153V, A189V, Y211F, M310T, S316H, R321H, A324S, Q327R, R341H counted along it

SMILES: CCCCCCCC/C=C/CCCCCCCCOP(O)(O)=S [Rx103]
- EC50 ([1]; LPA1 DKO MEF, human): 367 nM
- EC50 ([1]; LPA1 RH7777, human): 1710 nM
- Emax [1, 11]: 75%
- Emax ([1]; read-out: Emax (% of LPA)): 90%
- EC50 ([2]; LPA3 DKO MEF, human): 61 nM
- EC50 ([2]; LPA3 RH7777, human): 74 nM
- Emax [2, 11]: 77%
- Emax ([2]; read-out: Emax (% of LPA)): 100%
- pEC50 [3]: < 5.30
- Emax ([3]; CHO, read-out: Emax (% of LPA)): 88%
- pEC50 [4]: 7.08
- Emax ([4]; B103, read-out: Emax (% of LPA)): 103%
- pEC50 [5]: 6.88
- Emax ([5]; read-out: Emax (% of LPA)): 90%
- pEC50 [6]: 6.88
- Emax ([6]; read-out: Emax (% of LPA)): 87.6%
- pEC50 [7]: 6.45
- Emax ([7]; read-out: Emax (% of LPA)): 100%
- LPAR activation [8]: has activity but has a uniformly reduced EC50 and Emax
- pEC50 ([9]; Cricetulus griseus, CHO): < 5.30
- Emax ([9]; Cricetulus griseus, CHO, read-out: Emax (% of LPA)): 12%
- pEC50 [10]: 6.62
- Emax ([10]; read-out: Emax (% of LPA)): 70%

SMILES: CCCCCCCC/C=C\CCCCCCCCOP(=O)(O)O [Rx200, oleyl phosphate]
- Emax (% of LPA) ([1]; LPA1 DKO MEF, human): 53 % of LPA
- pEC50 ([1]; LPA1 DKO MEF, human): 5.87
- Emax (% of LPA) ([1]; LPA1 RH7777, human): 83 % of LPA
- pEC50 ([1]; LPA1 RH7777, human): 6.48
- Emax (% of LPA) ([2]; LPA3 DKO MEF, human): 34 % of LPA
- pEC50 ([2]; LPA3 DKO MEF, human): < 5.30
- Emax (% of LPA) ([2]; LPA3 RH7777, human): 61 % of LPA
- pEC50 ([2]; LPA3 RH7777, human): 6.13
- Emax (% of LPA) ([3]; LPA4 CHO, human, mean): 70 % of LPA
- pEC50 ([3]; LPA4 CHO, human, mean, read-out: EC50): 6.13
- Emax (% of LPA) ([4]; LPA5 B103, human, mean): 100 % of LPA
- pEC50 ([4]; LPA5 B103, human, mean, read-out: EC50): 6.78
- EC50 [nM] ([5]; LPA2 DKO MEF, rhesus, mean): No
- Emax (% of LPA) ([5]; LPA2 DKO MEF, rhesus, mean): No
- EC50 [nM] ([6]; LPA2 DKO MEF, rat, mean): No
- Emax (% of LPA) ([6]; LPA2 DKO MEF, rat, mean): No
- EC50 [nM] ([7]; LPA2 DKO MEF, mouse, mean): No
- Emax (% of LPA) ([7]; LPA2 DKO MEF, mouse, mean): No
- LPAR activation [8]: virtually inactive
- Emax (% of LPA) ([9]; Control CHO (untransfected; endogenously expresses LPA1)): 12%
- pEC50 ([9]; Control CHO (untransfected; endogenously expresses LPA1), read-out: EC50): 6.02
- EC50 [nM] ([10]; LPA2 DKO MEF, human, mean): No
- Emax (% of LPA) ([10]; LPA2 DKO MEF, human, mean): No
